Data reported in patent US12077503B2, “Substituted cyclic amides and their use as herbicides” (FMC CORPORATION, priority 2015, dated 2024).

Legend:
Format in all cases: in vivo
[1] = tested on: barnyardgrass (Echinochloa crus-galli); assay: Test B flooded paddy test; details: Echinochloa crus-galli, 360 h, Flood, 250 g ai/ha; visually evaluated after 13 to 15 d; read-out: Plant response rating, Barnyardgrass (0 to 100 scale where 0 is no effect and 100 is complete control)
How it was run: (§1)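 Response scored visually against untreated controls, 0 = no effect and 100 = complete control, 13–15 d after treatment in the greenhouse. Compounds added to paddy water held 3 cm above soil surface. Treatment given at 2-leaf stage.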

rice (Oryra sativa) = assay: Test B flooded paddy test; details: Oryza sativa, 360 h, Flood, 250 g ai/ha; visually evaluated after 13 to 15 d; read-out: Plant response rating, Rice (0 to 100 scale where 0 is no effect and 100 is complete control)
How it was run: as §1

[2] = tested on: sedge, umbrella (small-flower umbrella sedge, Cyperus difformis); assay: Test B flooded paddy test; details: Cyperus difformis, 360 h, Flood, 250 g ai/ha; visually evaluated after 13 to 15 d; read-out: Plant response rating, Sedge, Umbrella (0 to 100 scale where 0 is no effect and 100 is complete control)
How it was run: as §1

[3] = tested on: ducksalad (Heteranthera limosa); assay: Test B flooded paddy test; details: Heteranthera limosa, 360 h, Flood, 250 g ai/ha; visually evaluated after 13 to 15 d; read-out: Plant response rating, Ducksalad (0 to 100 scale where 0 is no effect and 100 is complete control)
How it was run: as §1

[4] = tested on: pigweed (Amaranthus retroflexus); assay: Test A postemergence; details: Amaranthus retroflexus, post-emergence, 240 h, Postemergence
How it was run: (§2)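 Treatment is preemergence as a directed soil spray after planting, or postemergence at the one- to two-leaf stage, with test chemical in a non-phytotoxic solvent mixture plus surfactant. Plants stay in the greenhouse about 10 d before visual injury scoring on a 0 to 100 scale versus untreated controls.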

[5] = tested on: Galium (catchweed bedstraw, Galium aparine); assay: Test A postemergence; details: Galium, post-emergence, 240 h, Postemergence
How it was run: as §2

Kochia (Kochia scoparia) [6] = assay: Test A postemergence; details: Bassia scoparia, post-emergence, 240 h, Postemergence
How it was run: as §2

[7] = tested on: barnyardgrass (Echinochloa crus-galli); assay: Test A postemergence; details: Echinochloa crus-galli, post-emergence, 240 h, Postemergence
How it was run: as §2

[8] = tested on: blackgrass (Alopecurus myosuroides); assay: Test A postemergence; details: Alopecurus myosuroides, post-emergence, 240 h, Postemergence
How it was run: as §2

[9] = tested on: ragweed (common ragweed, Ambrosia elatior); assay: Test A postemergence; details: Ambrosia artemisiifolia, post-emergence, 240 h, Postemergence
How it was run: as §2

[10] = tested on: ryegrass, Italian (Italian ryegrass, Lolium multiflorum); assay: Test A postemergence; details: Lolium multiflorum, post-emergence, 240 h, Postemergence
How it was run: as §2

[11] = tested on: giant foxtail (Setaria faberii); assay: Test A postemergence; details: Setaria faberi, post-emergence, 240 h, Postemergence
How it was run: as §2

[12] = tested on: wheat (Triticum aestivum); assay: Test A postemergence; details: Triticum aestivum, post-emergence, 240 h, Postemergence
How it was run: as §2

corn (Zea mays) = assay: Test A postemergence; details: Zea mays, post-emergence, 240 h, Postemergence
How it was run: as §2

[13] = tested on: pigweed (Amaranthus retroflexus); assay: Test A preemergence; details: Amaranthus retroflexus, pre-emergence, 240 h, Preemergence
Kochia (Kochia scoparia) [14] = assay: Test A preemergence; details: Bassia scoparia, pre-emergence, 240 h, Preemergence
How it was run: as §2

[15] = tested on: barnyardgrass (Echinochloa crus-galli); assay: Test A preemergence; details: Echinochloa crus-galli, pre-emergence, 240 h, Preemergence
How it was run: as §2

[16] = tested on: ragweed (common ragweed, Ambrosia elatior); assay: Test A preemergence; details: Ambrosia artemisiifolia, pre-emergence, 240 h, Preemergence
How it was run: as §2

[17] = tested on: ryegrass, Italian (Italian ryegrass, Lolium multiflorum); assay: Test A preemergence; details: Lolium multiflorum, pre-emergence, 240 h, Preemergence
How it was run: as §2

[18] = tested on: giant foxtail (Setaria faberii); assay: Test A preemergence; details: Setaria faberi, pre-emergence, 240 h, Preemergence
How it was run: as §2

CN1C[C@H](c2cccc(C(F)(F)F)c2)[C@@H](C(=O)Nc2cccnc2F)C1=O [Compound 1397]
pest or weed control at 250 g/ha [1]: 75% | pest or weed control at 250 g/ha (rice (Oryra sativa)): 0% | pest or weed control at 250 g/ha [2]: 0% | pest or weed control at 250 g/ha [3]: 100% | pest or weed control at 31 g/ha ([4]; 31 g ai/ha, 0 is no effect, 100 is complete control, read-out: Pigweed plant response rating (0 to 100 scale)): 0% | pest or weed control at 125 g/ha ([4]; 125 g ai/ha, visual injury after approx. 10 d, 0 to 100 scale, 0 no effect, 100 complete control, read-out: Plant response rating, Pigweed): 0% | pest or weed control at 31 g/ha ([5]; 31 g ai/ha, 0 is no effect, 100 is complete control, read-out: Galium plant response rating (0 to 100 scale)): 20% | pest or weed control at 125 g/ha ([5]; 125 g ai/ha, visual injury after approx. 10 d, 0 to 100 scale, 0 no effect, 100 complete control, read-out: Plant response rating, Galium): 60% | pest or weed control at 31 g/ha (Kochia (Kochia scoparia) [6]; 31 g ai/ha, 0 is no effect, 100 is complete control, read-out: Kochia plant response rating (0 to 100 scale)): 0% | pest or weed control at 125 g/ha (Kochia (Kochia scoparia) [6]; 125 g ai/ha, visual injury after approx. 10 d, 0 to 100 scale, 0 no effect, 100 complete control, read-out: Plant response rating, Kochia): 0% | pest or weed control at 31 g/ha ([7]; 31 g ai/ha, 0 is no effect, 100 is complete control, read-out: Barnyardgrass plant response rating (0 to 100 scale)): 90% | pest or weed control at 125 g/ha ([7]; 125 g ai/ha, visual injury after approx. 10 d, 0 to 100 scale, 0 no effect, 100 complete control, read-out: Plant response rating, Barnyardgrass): 90% | pest or weed control at 31 g/ha ([8]; 31 g ai/ha, 0 is no effect, 100 is complete control, read-out: Blackgrass plant response rating (0 to 100 scale)): 40% | pest or weed control at 125 g/ha ([8]; 125 g ai/ha, visual injury after approx. 10 d, 0 to 100 scale, 0 no effect, 100 complete control, read-out: Plant response rating, Blackgrass): 70% | pest or weed control at 31 g/ha ([9]; 31 g ai/ha, 0 is no effect, 100 is complete control, read-out: Ragweed plant response rating (0 to 100 scale)): 0% | pest or weed control at 125 g/ha ([9]; 125 g ai/ha, visual injury after approx. 10 d, 0 to 100 scale, 0 no effect, 100 complete control, read-out: Plant response rating, Ragweed): 0% | pest or weed control at 31 g/ha ([10]; 31 g ai/ha, 0 is no effect, 100 is complete control, read-out: Ryegrass, Italian plant response rating (0 to 100 scale)): 50% | pest or weed control at 125 g/ha ([10]; 125 g ai/ha, visual injury after approx. 10 d, 0 to 100 scale, 0 no effect, 100 complete control, read-out: Plant response rating, Ryegrass, Italian): 40% | pest or weed control at 31 g/ha ([11]; 31 g ai/ha, 0 is no effect, 100 is complete control, read-out: Foxtail, Giant plant response rating (0 to 100 scale)): 80% | pest or weed control at 125 g/ha ([11]; 125 g ai/ha, visual injury after approx. 10 d, 0 to 100 scale, 0 no effect, 100 complete control, read-out: Plant response rating, Foxtail, Giant): 90% | plant injury at 31 g/ha ([12]; 31 g ai/ha, 0 is no effect, 100 is complete control, read-out: Wheat plant response rating (0 to 100 scale)): 40% | plant injury at 125 g/ha ([12]; 125 g ai/ha, visual injury after approx. 10 d, 0 to 100 scale, 0 no effect, 100 complete control, read-out: Plant response rating, Wheat): 70% | plant injury at 31 g/ha (corn (Zea mays); 31 g ai/ha, 0 is no effect, 100 is complete control, read-out: Corn plant response rating (0 to 100 scale)): 50% | Corn plant response rating (crop injury, 0 = no effect, 100 = complete kill) at 125 g/ha (corn (Zea mays); 125 g ai/ha, visual injury after approx. 10 d, 0 to 100 scale, 0 no effect, 100 complete control): 90% | pest or weed control at 31 g/ha ([13]; 31 g ai/ha, 0 to 100 scale where 0 is no effect and 100 is complete control, read-out: Pigweed plant response rating): 0% | pest or weed control at 125 g/ha ([13]; 125 g ai/ha, 0 to 100 scale (0 no effect, 100 complete control), read-out: Plant response rating, Pigweed): 0% | pest or weed control at 31 g/ha (Kochia (Kochia scoparia) [14]; 31 g ai/ha, 0 to 100 scale where 0 is no effect and 100 is complete control, read-out: Kochia plant response rating): 0% | pest or weed control at 125 g/ha (Kochia (Kochia scoparia) [14]; 125 g ai/ha, 0 to 100 scale (0 no effect, 100 complete control), read-out: Plant response rating, Kochia): 60% | pest or weed control at 31 g/ha ([15]; 31 g ai/ha, 0 to 100 scale where 0 is no effect and 100 is complete control, read-out: Barnyardgrass plant response rating): 100% | pest or weed control at 125 g/ha ([15]; 125 g ai/ha, 0 to 100 scale (0 no effect, 100 complete control), read-out: Plant response rating, Barnyardgrass): 100% | pest or weed control at 31 g/ha ([16]; 31 g ai/ha, 0 to 100 scale where 0 is no effect and 100 is complete control, read-out: Ragweed plant response rating): 0% | pest or weed control at 125 g/ha ([16]; 125 g ai/ha, 0 to 100 scale (0 no effect, 100 complete control), read-out: Plant response rating, Ragweed): 0% | pest or weed control at 31 g/ha ([17]; 31 g ai/ha, 0 to 100 scale where 0 is no effect and 100 is complete control, read-out: Ryegrass, Italian plant response rating): 50% | pest or weed control at 125 g/ha ([17]; 125 g ai/ha, 0 to 100 scale (0 no effect, 100 complete control), read-out: Plant response rating, Ryegrass, Italian): 70% | pest or weed control at 31 g/ha ([18]; 31 g ai/ha, 0 to 100 scale where 0 is no effect and 100 is complete control, read-out: Foxtail, Giant plant response rating): 100% | pest or weed control at 125 g/ha ([18]; 125 g ai/ha, 0 to 100 scale (0 no effect, 100 complete control), read-out: Plant response rating, Foxtail, Giant): 100%
